“And” between values parts separate entries of the source, which are not always exact repeats. Equal entries are not always repeated.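 Results reflect a 48-hour exposure of cells in 96-well plates to compound at five concentrations. At the GI50, growth is halved. TGI is the concentration that stops growth completely.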

Test systems include A498 renal; CAKI-1 renal; HCC-2998 colon; HL-60(TB) leukemia; HOP-62 NSCLC; LOX IMVI melanoma; MDA-MB-435; OVCAR-3 ovarian; PC-3 prostate; UO-31 renal.
Assay in all cases: growth of human tumour cells (NCI), 48 h

With `O=[N+]([O-])c1cccc(C2CC(c3ccccc3)=Nc3ccccc3S2)c1` (stereo not given), the GI50 with A498 renal was 14.7 µM; in the assay with CAKI-1 renal, 21.8 µM; with HCC-2998 colon, 16 µM; with HL-60(TB) leukemia, 26.5 µM; with HOP-62 NSCLC, 37.8 µM; with LOX IMVI melanoma, 3.02 µM. The GI50 in the assay with MDA-MB-435 was 15.7 µM; with OVCAR-3 ovarian, 13.3 µM; in the assay on PC-3 prostate, 10.1 µM; with UO-31 renal it was 9.61 µM. The TGI is 95.8 µM in the assay on A498 renal; more than 100 µM with CAKI-1 renal; 31 µM in the assay on HCC-2998 colon; 84.7 µM with HL-60(TB) leukemia; more than 100 µM with HOP-62 NSCLC; 11.9 µM with LOX IMVI melanoma. For the same molecule, the TGI in the assay with MDA-MB-435 was determined as 37.7 µM; in the assay with OVCAR-3 ovarian, 26.1 µM; with PC-3 prostate it was 28.7 µM; with UO-31 renal, 21.9 µM.

`CSc1ccc2c(c1)C(N1CCN(C)CC1)Cc1ccccc1S2` (stereo not given): the GI50 was 1.37 µM in the assay on A498 renal; 1.62 µM in the assay with CAKI-1 renal; 1.65 µM in the assay with HCC-2998 colon; 1.94 µM in the assay with HL-60(TB) leukemia; 1.8 µM in the assay with HOP-62 NSCLC; 1.63 µM with LOX IMVI melanoma. Moreover, the GI50 in the assay on MDA-MB-435 was 1.78 µM; in the assay with OVCAR-3 ovarian, 2.67 µM; with PC-3 prostate, 1.89 µM; in the assay on UO-31 renal, 1.8 µM. Further, the TGI was 25.8 µM and 2.8 µM in the assay on A498 renal; 13.3 µM and 3.33 µM in the assay with CAKI-1 renal; 25.9 µM and 3.08 µM in the assay on HCC-2998 colon; 10.7 µM and 3.81 µM with HL-60(TB) leukemia; 23.6 µM and 3.29 µM in the assay on HOP-62 NSCLC; 4.05 µM and 3.05 µM with LOX IMVI melanoma. Moreover, the TGI in the assay on MDA-MB-435 was 6.47 µM and 3.46 µM; in the assay with OVCAR-3 ovarian, 28 µM and 7.22 µM; in the assay with PC-3 prostate, 17.6 µM and 6.51 µM; in the assay on UO-31 renal, 13.8 µM and 5.44 µM.

Turning to `N#CC1c2ccccc2C=CN1C(=O)N(c1ccccc1)c1ccccc1` (stereo not given), the GI50 was 7.14 µM in the assay with A498 renal; 1.64 µM in the assay with CAKI-1 renal; 11.1 µM with HCC-2998 colon; 2.11 µM in the assay with HL-60(TB) leukemia; 13.6 µM with HOP-62 NSCLC; 2.04 µM in the assay with LOX IMVI melanoma. Further, the GI50 with MDA-MB-435 was 1.74 µM; with OVCAR-3 ovarian, 1.76 µM; in the assay on PC-3 prostate it was 9.82 µM; in the assay on UO-31 renal it was 1.49 µM. The TGI in the assay on A498 renal amounted to 24.4 µM; with CAKI-1 renal it was 3.63 µM; in the assay with HCC-2998 colon, 23.9 µM; in the assay with HL-60(TB) leukemia, 6.24 µM; in the assay on HOP-62 NSCLC it was 26.7 µM; in the assay on LOX IMVI melanoma, 4.61 µM. For the same molecule, the TGI turned out to be 3.81 µM with MDA-MB-435, 3.18 µM in the assay with OVCAR-3 ovarian, 25.3 µM with PC-3 prostate and 3.12 µM in the assay on UO-31 renal.

In the case of `O=C(Nc1nc2ccccc2s1)Nc1ccc([N+](=O)[O-])cc1Cl`, the GI50 in the assay with A498 renal is 5.15 µM; in the assay with CAKI-1 renal it was 6.25 µM; in the assay on HCC-2998 colon, 5.65 µM; in the assay with HL-60(TB) leukemia, 15.2 µM; in the assay on HOP-62 NSCLC, 7.61 µM; in the assay on LOX IMVI melanoma it was 2.66 µM. Moreover, the GI50 was 3.56 µM with MDA-MB-435, 3.05 µM in the assay on OVCAR-3 ovarian, 4.26 µM with PC-3 prostate and 2.24 µM in the assay with UO-31 renal. The TGI was 12.5 µM with A498 renal; 16.2 µM in the assay with CAKI-1 renal; 25 µM with HCC-2998 colon; more than 54.7 µM with HL-60(TB) leukemia; 16.6 µM with HOP-62 NSCLC; 6.7 µM in the assay on LOX IMVI melanoma. For the same molecule, the TGI with MDA-MB-435 was 14.2 µM; with OVCAR-3 ovarian, 8.17 µM; in the assay with PC-3 prostate it was more than 28.8 µM; in the assay with UO-31 renal, 6.44 µM.

As to `COC(=O)[C@H]1CCCN1C(=O)[C@H]1CCCN1C(=O)[C@H](Cc1c[nH]c2ccccc12)NC(=S)Nc1cc(C(F)(F)F)cc(C(F)(F)F)c1`, the GI50 was 6.54 µM in the assay with A498 renal; 15 µM in the assay on CAKI-1 renal; 2.42 µM in the assay with HCC-2998 colon; 4.19 µM in the assay with HL-60(TB) leukemia; 8.28 µM in the assay with HOP-62 NSCLC; 3.19 µM in the assay with LOX IMVI melanoma. Besides, the GI50 in the assay on MDA-MB-435 was 5.6 µM; with OVCAR-3 ovarian, 8.43 µM; with PC-3 prostate it was 3.47 µM; in the assay with UO-31 renal, 18.5 µM. The TGI with A498 renal was more than 100 µM; in the assay with CAKI-1 renal, more than 100 µM; with HCC-2998 colon, 5.96 µM; with HL-60(TB) leukemia, 57.2 µM; in the assay on HOP-62 NSCLC it was more than 100 µM; in the assay on LOX IMVI melanoma, 26.3 µM. The TGI with MDA-MB-435, in the assay with OVCAR-3 ovarian, in the assay on PC-3 prostate and in the assay with UO-31 renal was more than 100 µM in each case.

(Values after PubChem BioAssay (NCI).)
